Experimental data published in US20260138990A1, “TRICYCLIC FUSED IMIDAZOLE COMPOUNDS AS CD38 MODULATORS AND USES THEREOF” (AEOVIAN PHARMACEUTICALS, INC., priority 2023, published 2026).
Where a name gives a salt, the structure may show the parent alone.

Key:
human CD38 = molecular target: T1, human CD38 (Homo sapiens, UniProt P28907); test: NAD+ cyclase activity assay with human recombinant CD38 protein (ε-NAD fluorescence); type: biochemical; settings: 1.9 nM human CD38, substrate ε-NAD, 30 min preincubation, fluorescence 300/410 nm
T1 construct: purchased Bio-Techne GmbH AVI2404
T1 sequence (P28907 1-300): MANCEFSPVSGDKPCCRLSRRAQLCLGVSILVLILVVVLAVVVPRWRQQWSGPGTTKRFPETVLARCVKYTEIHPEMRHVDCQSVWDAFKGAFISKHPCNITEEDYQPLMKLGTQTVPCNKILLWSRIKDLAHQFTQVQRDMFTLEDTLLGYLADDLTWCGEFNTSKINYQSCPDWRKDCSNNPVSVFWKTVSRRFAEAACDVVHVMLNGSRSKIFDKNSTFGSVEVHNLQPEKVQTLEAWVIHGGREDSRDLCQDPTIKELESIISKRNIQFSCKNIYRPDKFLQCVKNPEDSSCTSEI
Description: (§1) Example 4: NAD^+ Cydase Activity Assay with Human or Mouse Recombinant CD38 Protein
(§2) The following assay was used to determine the ability of compounds of the invention to inhibit the hydrolysis of NAD^+ by the human or mouse enzyme, CD38.
(§3) Reaction buffer: 40 mM HEPES/NaOH pH 7.5, 250 mM sucrose, 0.01% Tween
(§4) Final concentrations: 0.6 nM mouse CD38 (4947-AC, Bio-Techne GmbH) 1.9 nM human CD38 (AVI2404, Bio-Techne GmbH)
(§5) Substrate: […] Nicotinamide 1,N6-ethenoadenine dinucleotide (&-NAD)
(§6) Read-out: Fluorescence intensity (extinction 300 nm/emission 410 nm)
(§7) Required reaction buffer, required CD38 concentration in reaction buffer and required e-NAD concentration in reaction buffer were prepared. Thereafter, 8 μL of CD38 in reaction buffer was added to High Control and compound concentration wells in 384 well plate (Corning #4514, 384 well, nonbinding surface, low volume, round bottom) and 8 μL of reaction buffer to Low Control. Compound dilutions were transferred via pintool technology that transfers 42.5 nL compound dilutions (12-point dose-response with factor three dilutions in 100% DMSO) well-to-well. Plate was subsequently shaken for 15 s at 1450 rpm and sealed for incubation for 30 min at room temperature. Thereafter, 2 μL of e-NAD in reaction buffer were added with Integra Voyager. After shaking for 15 s at 1450 rpm, plate was sealed, and assay signal were measured continuously with PHERAstar® fluorescence intensity module (extinction 300 nm/emission 410 nm).
(§8) Dose-response curves were constructed using twelve-pointfactor three dilutions in triplicates per plate. High control (full enzyme activity) was set to assay signal of CD38 and e-NAD in presence of vehicle (DMSO) and Low control (full enzyme inhibition) was set to assay signal of e-NAD and vehicle (DMSO) in absence of CD38. For data analysis, fluorescent signal of traces corresponding to each compound concentration and High and Low control were monitored over time. Each run, High Control (full enzyme activity) was fitted to Linear equation via GraphPad Prism to determine CD38 activity from the slope and determine the time interval of linear phase of reaction to account for minor fluctuations. Thereafter, slopes of all compound concentrations were determined via fitting to same linear equation (GraphPad Prism) over the same time interval as determined for High control. […] Unless otherwise stated, fitting of curves were fixed to 100%-inhibition and unlocked for 0%-inhibition.

mouse CD38 = molecular target: T2, mouse CD38 (Mus musculus, UniProt P56528); test: NAD+ cyclase activity assay with mouse recombinant CD38 protein (ε-NAD fluorescence); type: biochemical; settings: 0.6 nM mouse CD38, substrate ε-NAD, 30 min preincubation, fluorescence 300/410 nm
T2 construct: purchased Bio-Techne GmbH 4947-AC
T2 sequence (P56528 1-304): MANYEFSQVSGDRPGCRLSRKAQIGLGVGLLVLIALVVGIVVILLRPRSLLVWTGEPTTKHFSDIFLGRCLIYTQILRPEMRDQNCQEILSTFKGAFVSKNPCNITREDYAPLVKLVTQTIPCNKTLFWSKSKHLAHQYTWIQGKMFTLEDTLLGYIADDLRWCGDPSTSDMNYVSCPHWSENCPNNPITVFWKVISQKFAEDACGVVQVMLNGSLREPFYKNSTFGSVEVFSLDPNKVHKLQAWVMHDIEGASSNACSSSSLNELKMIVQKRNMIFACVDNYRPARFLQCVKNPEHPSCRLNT
Description: as §1, §2, §3, §4, §5, §6, §7, §8

SMILES | IC50 (human CD38) | IC50 (mouse CD38)
O=C(N[C@H]1CCc2ccccc21)c1ccc2c(c1)-c1cncn1CCO2 [Compound 6A, (S)—N-(2,3-Dihydro-1H-inden-1-yl)-5,6-dihydrobenzo[f]imidazo[1,5-d][1,4]oxazepine-10-carboxamide] | < 30 nM | 1 to 10 nM
O=C(Nc1ccc2scnc2c1)c1ccc2c(c1)-c1cncn1CCO2 [Compound 7A, N-(Benzo[d]thiazol-5-yl)-5,6-dihydrobenzo[f]imidazo[1,5-d][1,4]oxazepine-10-carboxamide] | < 30 nM | 1 to 10 nM
O=C(Nc1ccc2c(c1)OCCO2)c1ccc2c(c1)-c1cncn1CCO2 [Compound 8A, N-(2,3-Dihydrobenzo[b][1,4]dioxin-6-yl)-5,6-dihydrobenzo[f]imidazo[1,5-d][1,4]oxazepine-10-carboxamide] | < 30 nM | 1 to 10 nM
O=C(Nc1ccc2c(c1)CCO2)c1ccc2c(c1)-c1cncn1CCO2 [Compound 9A, N-(2,3-Dihydrobenzofuran-5-yl)-5,6-dihydrobenzo[f]imidazo[1,5-d][1,4]oxazepine-10-carboxamide] | < 30 nM | 1 to 10 nM
O=C(Nc1ccc(C(F)(F)F)nc1)c1ccc2c(c1)-c1cncn1CCO2 [Compound 10A, N-(6-(Trifluoromethyl)pyridin-3-yl)-5,6-dihydrobenzo[f]imidazo[1,5-d][1,4]oxazepine-10-carboxamide] | < 30 nM | 1 to 10 nM
COCCO[C@H]1CC[C@H](NC(=O)c2ccc3[nH]c(=O)c4cncn4c3c2)CC1 [Compound 11A, N-((1r,4r)-4-(2-Methoxyethoxy)cyclohexyl)-4-oxo-4,5-dihydroimidazo[1,5-a]quinoxaline-8-carboxamide] | > 1000 nM | > 100 nM
O=C(N[C@@H]1CCS(=O)(=O)C1)c1ccc2[nH]c(=O)c3cncn3c2c1 [Compound 12A, (R)—N-(1,1-Dioxidotetrahydrothiophen-3-yl)-4-oxo-4,5-dihydroimidazo[1,5-a]quinoxaline-8-carboxamide] | > 1000 nM | > 100 nM
O=C(N[C@@H]1CCCOC1)c1ccc2[nH]c(=O)c3cncn3c2c1 [Compound 13A, (R)-4-Oxo-N-(tetrahydro-2H-pyran-3-yl)-4,5-dihydroimidazo[1,5-a]quinoxaline-8-carboxamide] | > 1000 nM | > 100 nM
O=C(N[C@@H]1CCCOC1)c1ccc2c(c1)-n1ccnc1CCO2 [Compound 14A, (R)—N-(Tetrahydro-2H-pyran-3-yl)-4,5-dihydrobenzo[b]imidazo[1,2-d][1,4]oxazepine-9-carboxamide] | > 1000 nM | > 100 nM
O=C(N[C@@H]1CCCOC1)c1ccc2c(c1)-n1cncc1CCO2 [Compound 15A, (R)—N-(Tetrahydro-2H-pyran-3-yl)-4,5-dihydrobenzo[b]imidazo[1,5-d][1,4]oxazepine-9-carboxamide] | > 1000 nM | > 100 nM
Cn1c(=O)c2cncn2c2cc(C(=O)N[C@@H]3CCCOC3)ccc21 [Compound 16A, (R)-5-Methyl-4-oxo-N-(tetrahydro-2H-pyran-3-yl)-4,5-dihydroimidazo[1,5-a]quinoxaline-8-carboxamide] | > 1000 nM | > 100 nM
CNC(=O)[C@H]1CC[C@H](NC(=O)c2ccc3c(c2)-c2cncn2CCO3)CC1 [Compound 17A, N-((1r,4r)-4-(Methylcarbamoyl)cyclohexyl)-5,6-dihydrobenzo[f]imidazo[1,5-d][1,4]oxazepine-10-carboxamide] | < 30 nM | < 1 nM
CS(=O)(=O)c1cccc(NC(=O)c2ccc3c(c2)-c2cncn2CCO3)c1 [Compound 18A, N-(3-(Methylsulfonyl)phenyl)-5,6-dihydrobenzo[f]imidazo[1,5-d][1,4]oxazepine-10-carboxamide] | < 30 nM | < 1 nM
O=C(Nc1ccc2c(c1)CCS2(=O)=O)c1ccc2c(c1)-c1cncn1CCO2 [Compound 19A, N-(1,1-Dioxido-2,3-dihydrobenzo[b]thiophen-5-yl)-5,6-dihydrobenzo[f]imidazo[1,5-d][1,4]oxazepine-10-carboxamide] | < 30 nM | < 1 nM
CO[C@H]1CC[C@H](NC(=O)c2ccc3c(c2)-c2cncn2CCO3)CC1 [Compound 20A, N-((1r,4r)-4-Methoxycyclohexyl)-5,6-dihydrobenzo[f]imidazo[1,5-d][1,4]oxazepine-10-carboxamide] | < 30 nM | < 1 nM
CS(=O)(=O)c1cc(NC(=O)c2ccc3c(c2)-c2cncn2CCO3)ccc1F [Compound 21A, N-(4-Fluoro-3-(methylsulfonyl)phenyl)-5,6-dihydrobenzo[f]imidazo[1,5-d][1,4]oxazepine-10-carboxamide] | < 30 nM | < 1 nM
CS(=O)(=O)c1cncc(NC(=O)c2ccc3c(c2)-c2cncn2CCO3)c1 [Compound 22A, N-(5-(Methylsulfonyl)pyridin-3-yl)-5,6-dihydrobenzo[f]imidazo[1,5-d][1,4]oxazepine-10-carboxamide] | < 30 nM | 1 to 10 nM
CC(C)(C)OC(=O)N1Cc2ccc(NC(=O)c3ccc4c(c3)-c3cncn3CCO4)cc2C1 [Compound 23A, tert-Butyl 5-(5,6-dihydrobenzo[f]imidazo[1,5-d][1,4]oxazepine-10-carboxamido)isoindoline-2-carboxylate] | 30 to 100 nM | 10 to 100 nM
O=C(Nc1ccc2c(c1)CNC2)c1ccc2c(c1)-c1cncn1CCO2 [Compound 24A, N-(Isoindolin-5-yl)-5,6-dihydrobenzo[f]imidazo[1,5-d][1,4]oxazepine-10-carboxamide hydrochloride] | 30 to 100 nM | 10 to 100 nM
CS(=O)(=O)N1Cc2ccc(NC(=O)c3ccc4c(c3)-c3cncn3CCO4)cc2C1 [Compound 25A, N-(2-(Methylsulfonyl)isoindolin-5-yl)-5,6-dihydrobenzo[f]imidazo[1,5-d][1,4]oxazepine-10-carboxamide] | < 30 nM | 1 to 10 nM
O=C(N[C@@H]1CCCOC1)c1ccc2c(c1)-c1cncn1CCCO2 [Compound 26A, (R)—N-(Tetrahydro-2H-pyran-3-yl)-6,7-dihydro-5H-benzo[b]imidazo[5,1-d][1,5]oxazocine-11-carboxamide] | 100 to 1000 nM | 10 to 100 nM
COCCNc1nc2ccc(C(=O)N[C@@H]3CCCOC3)cc2n2cncc12 [Compound 27A, (R)-4-((2-Methoxyethyl)amino)-N-(tetrahydro-2H-pyran-3-yl)imidazo[1,5-a]quinoxaline-8-carboxamide] | 100 to 1000 nM | 1 to 10 nM
CNc1nc2ccc(C(=O)N[C@@H]3CCCOC3)cc2n2cncc12 [Compound 28A, (R)-4-(Methylamino)-N-(tetrahydro-2H-pyran-3-yl)imidazo[1,5-a]quinoxaline-8-carboxamide] | < 30 nM | 1 to 10 nM
COCCS(=O)(=O)N[C@H]1CC[C@H](NC(=O)c2ccc3c(c2)-c2cncn2CCO3)CC1 [Compound 29A, N-((1r,4r)-4-((2-Methoxyethyl)sulfonamido)cyclohexyl)-5,6-dihydrobenzo[f]imidazo[1,5-d][1,4]oxazepine-10-carboxamide] | < 30 nM | 1 to 10 nM
O=C(Nc1ccc2c(n1)OCCO2)c1ccc2c(c1)-c1cncn1CCO2 [Compound 30A, N-(2,3-Dihydro-[1,4]dioxino[2,3-b]pyridin-6-yl)-5,6-dihydrobenzo[f]imidazo[1,5-d][1,4]oxazepine-10-carboxamide] | < 30 nM | 1 to 10 nM
